Assay results reported in US20260256753A1, “USE OF AN OREXIN 2 RECEPTOR AGONIST FOR IMPROVING RESPIRATORY FUNCTION DURING SLEEP” (TAKEDA PHARMACEUTICAL COMPANY LIMITED, priority 2023, published 2026).

Assays:
OX2R [1] = biological target: T1, OX2R (Homo sapiens, UniProt O43614); settings: OX2R-expressed recombinant cells; cited from earlier work
T1 sequence (O43614 1-444): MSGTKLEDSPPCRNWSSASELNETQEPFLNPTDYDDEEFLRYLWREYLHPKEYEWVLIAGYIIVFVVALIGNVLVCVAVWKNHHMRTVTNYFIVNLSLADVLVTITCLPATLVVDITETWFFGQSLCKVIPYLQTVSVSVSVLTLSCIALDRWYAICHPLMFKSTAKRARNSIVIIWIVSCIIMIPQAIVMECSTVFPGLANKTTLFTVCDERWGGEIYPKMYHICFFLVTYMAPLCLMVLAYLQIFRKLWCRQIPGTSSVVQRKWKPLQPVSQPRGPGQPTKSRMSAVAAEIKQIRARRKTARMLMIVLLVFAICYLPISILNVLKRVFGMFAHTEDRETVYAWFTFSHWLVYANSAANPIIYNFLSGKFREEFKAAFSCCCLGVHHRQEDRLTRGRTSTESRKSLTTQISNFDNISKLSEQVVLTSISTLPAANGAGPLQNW

OX2R [2] = biological target: T1, OX2R; settings: OX2R-expressed recombinant cells; cited from earlier work; remark: listed apart in the source
phrenic motoneurons = experiment: Electrophysiologic recording of phrenic motoneurons in rat isolated brainstem-spinal cord preparations; assay type: cell-based; settings: C3-5 ventral root, versus vehicle control, FIG. 2
Protocol: Neonatal (postnatal day 1-4) rats were decapitated, and the brainstem-spinal cord was dissected in a bath containing ACSF. The cerebellum and pons were ablated. At least 30 min prior to the start of recording, the tissue was transferred in the recording solution in which the concentration of K+ was raised to 5 mM and that of Mg2+ was decreased to 0.5 mM to ensure production of long-term and stable rhythm (modified ACSF, in mM: NaCl 125, MgCl2 0.5, KCl 5, CaCl2 1, NaHCO3 25, NaH2PO4 1.25, glucose 30, pH 7.4). The tissues were glued on coverslips and transferred to a recording chamber and continuously perfused at 27±2° C. with mACSF at a flow rate of 2.3±0.2 mL/min. Activity of phrenic motoneurons was measured in electrophysiological recordings from C3-5 ventral root, outputs of phrenic motoneurons (J. J. Greer, J. C. Smith, J. L. Feldman, Respiratory and locomotor patterns generated in the fetal rat brain stem-spinal cord in vitro, J Neurophysiol 67 (4) (1992) 996-9; J. C. Smith, J. J. Greer, G. S. Liu, J. L. Feldman, Neural mechanisms generating respiratory pattern in mammalian brain stem-spinal cord in vitro. I. Spatiotemporal patterns of motor and medullary neuron activity, J Neurophysiol 64 (4) (1990) 1149-69), using a glass suction electrode. […] The rectification and integration was used for quantification of the activities of phrenic motoneurons because the spontaneous bursts detected in voltage signals are consisting of multiple positive and negative voltages from baseline (T. Sugita, et al.). […] Bursts were then automatically detected, and burst frequency was measured.
To evaluate the effects of vehicle (0.1% DMSO) on neuronal activities, after 5 min of stabilization, the neuronal activities under basal condition were recorded for 2-20 min, followed by recording with vehicle (0.1% DMSO) for 30-40 min. […] As vehicle (0.1% DMSO) had no significant effects on burst frequency of phrenic neurons, potential of drugs was assessed under vehicle (0.1% DMSO). […]

[3] = system: neurons in the pre-Bötzinger complex; experiment: Electrophysiologic recording of neurons in the pre-Bötzinger complex in rat medullary slices; assay type: cell-based; settings: whole cell patch clamp, versus vehicle (0.1% DMSO) control, FIG. 1
Text: (§1) Neonatal rats (postnatal day 1-10) were decapitated and the neuraxis was isolated in a chamber filled with oxygenated artificial cerebrospinal fluid solution (ACSF, in mM: NaCl 125, KCl 2.5, MgCl2 1, CaCl2 2, NaHCO3 25, NaH2PO4 1.25, glucose 25, pH 7.4). The cerebellum was removed, and the brainstem was mounted in the vibratome (VT 1000S; Leica, Milan, Italy) chamber filled with oxygenated gluconate cutting solution (in mM: Kgluconate 130, KCl 15, EGTA 0.2, HEPES 20, glucose 25, kynurenic acid 2, pH 7.4). Transverse medullary slices containing the pre-Bötzinger complex and hypoglossal nucleus were cut (400-600 μm thick). The slices were transferred at room temperature for 1 min in an oxygenated mannitol cutting solution (in mM: D-mannitol 225, glucose 25, KCl 2.5, NaH2PO4 1.25, NaHCO3 26, CaCl2 0.8, MgCl2 8, kynurenic acid 2, pH 7.4). Slices were then transferred in ACSF solution at 30° C. for 30 min and at room temperature for 30 min. At least 30 min prior to the start of recording, each slice was transferred in the recording solution in which the concentration of K+ was raised to 9 mM and that of Mg2+ was decreased to 0.5 mM to ensure the production of long-term and stable rhythm. […] Signals were acquired using Clampex 10.6 software (Axon, Molecular Devices, CA, USA) at a sampling rate of 10-20 kHz and filtered at 2-10 kHz using an 8-pole Bessel filter built within the software and analyzed using Clampfit 10.6 software (pClamp 10.6; Axon, Molecular Devices). […] Bursts were then automatically detected, and burst frequency was measured.
(§2) To evaluate the effects of vehicle (0.1% DMSO) on neuronal activities, after 5 min of stabilization, the neuronal activities under basal condition was recorded for 2-12 min, followed by recording in the presence of vehicle (0.1% DMSO) for 30 min. […]

hypoglossal motoneurons = experiment: Electrophysiologic recording of hypoglossal motoneurons in rat medullary slices; assay type: cell-based; settings: whole cell patch clamp, versus vehicle control, FIG. 3
Text: as §1, §2

Orexin-B: Orexin-B (OX-B) peptide
recruitment of β-arrestins (OX2R [1]): promote recruitment of β-arrestins
calcium mobilization (OX2R [2]): increase calcium mobilization

COc1ccc(-c2cccc(C(=O)N(C)C)c2)cc1S(=O)(=O)Nc1cccc(NCCNC(=O)c2ccccc2N(C)C)c1 [YNT-185]
recruitment of β-arrestins (OX2R [1]): promote recruitment of β-arrestins
calcium mobilization (OX2R [2]): increase calcium mobilization

CC(C)(O)C(=O)N1CC[C@H](NS(C)(=O)=O)[C@@H]1Cc1cccc(-c2cc(F)cc(F)c2)c1F [Compound B, N-((2S,3S)-1-(2-hydroxy-2-methylpropanoyl)-2-((2,3′,5′-trifluorobiphenyl-3-yl)methyl)pyrrolidin-3-yl) methanesulfonamide]
burst frequency of phrenic motoneurons (phrenic motoneurons): increased burst frequency
burst frequency in neurons in the pre-Bötzinger complex [3]: increased burst frequency
burst frequency of hypoglossal motoneurons (hypoglossal motoneurons): increased burst frequency
